From the NIST ThermoML archive (doi:10.1021/acs.jced.6b00516)
Numbers after ± are expanded uncertainties.

Experiments:
[1] = for viscosity / speed of sound / mass density: 102 kPa, Liquid; for viscosity: Concentric cylinders viscometry; for speed of sound: Frequency=3 MHz, Sing-around technique in a fixed-path interferometer; for mass density: Vibrating tube method; for surface tension liquid-gas: Sessile Drop
[2] = xn = mol fraction of the nth substance listed; conditions: 102 kPa, Liquid, Concentric cylinders viscometry, x2 = 0

Cc1ccccc1 [toluene]
[1]
Conditions | mass density [kg/m3] | speed of sound [m/s] | surface tension liquid-gas [mN/m] | viscosity [mPa·s]
293.15 K | 866.84 ± 0.13 | 1326.6 ± 0.8 | – | 0.607 ± 0.011
294.2 K | – | – | 28.6 ± 0.2 | –
303.15 K | 857.52 ± 0.13 | 1283.6 ± 0.8 | – | 0.54 ± 0.011
313.15 K | 848.14 ± 0.14 | 1241.1 ± 0.8 | – | 0.483 ± 0.011
323.15 K | 838.68 ± 0.14 | 1199.2 ± 0.8 | – | 0.434 ± 0.011
333.15 K | 829.15 ± 0.14 | 1157.7 ± 0.8 | – | 0.391 ± 0.011
343.15 K | 819.6 ± 0.2 | – | – | 0.349 ± 0.027
353.15 K | 809.8 ± 0.5 | – | – | 0.307 ± 0.011

CCCCCCCCCCCCCCCC [hexadecane] + CCCCC1CCCCC1
[2]
Conditions | viscosity [mPa·s]
293.15 K | 3.44 ± 0.02
303.15 K | 2.72 ± 0.02
313.15 K | 2.21 ± 0.02
323.15 K | 1.83 ± 0.01
333.15 K | 1.54 ± 0.01
343.15 K | 1.31 ± 0.01
353.15 K | 1.14 ± 0.01

CCCCC1CCCCC1 [butylcyclohexane]
[1]
Conditions | mass density [kg/m3] | speed of sound [m/s] | surface tension liquid-gas [mN/m] | viscosity [mPa·s]
293.15 K | 799.33 ± 0.14 | 1328.4 ± 0.8 | – | 1.31 ± 0.01
294 K | – | – | 26.7 ± 0.2 | –
303.15 K | 791.82 ± 0.14 | 1288.7 ± 0.8 | – | 1.12 ± 0.01
313.15 K | 784.28 ± 0.14 | 1249.5 ± 0.8 | – | 0.961 ± 0.012
323.15 K | 776.7 ± 0.14 | 1210.8 ± 0.8 | – | 0.837 ± 0.012
333.15 K | 769.09 ± 0.14 | 1172.8 ± 0.8 | – | 0.735 ± 0.011
343.15 K | 761.4 ± 0.2 | – | – | 0.648 ± 0.011
353.15 K | 753.7 ± 0.3 | – | – | 0.576 ± 0.021

Cc1ccccc1 [toluene] + CCCCC1CCCCC1
[2]
Conditions | viscosity [mPa·s]
293.15 K | 0.607 ± 0.011
303.15 K | 0.54 ± 0.011
313.15 K | 0.483 ± 0.011
323.15 K | 0.434 ± 0.011
333.15 K | 0.391 ± 0.011
343.15 K | 0.349 ± 0.011
353.15 K | 0.307 ± 0.011

CCCCCCCCCCCCCCCC [hexadecane]
[1]
Conditions | mass density [kg/m3] | speed of sound [m/s] | surface tension liquid-gas [mN/m] | viscosity [mPa·s]
293.15 K | 773.41 ± 0.14 | 1357.2 ± 0.8 | – | 3.44 ± 0.02
294 K | – | – | 27.1 ± 0.3 | –
303.15 K | 766.47 ± 0.14 | 1319.5 ± 0.8 | – | 2.72 ± 0.02
313.15 K | 759.55 ± 0.15 | 1283.3 ± 0.8 | – | 2.21 ± 0.02
323.15 K | 752.63 ± 0.15 | 1247.3 ± 0.8 | – | 1.83 ± 0.01
333.15 K | 745.71 ± 0.15 | 1212 ± 0.8 | – | 1.54 ± 0.01
343.15 K | 738.8 ± 0.2 | – | – | 1.31 ± 0.01
353.15 K | 731.9 ± 0.3 | – | – | 1.14 ± 0.01
363.15 K | – | – | – | 0.994 ± 0.012
373.15 K | – | – | – | 0.878 ± 0.012
